This note sets out measurements from patent US8334403B1, “C-lysine conjugates as pH-controlled, light-activated reagents for double stranded DNA cleavage and associated methods” (Florida State University Research Foundation, Inc., priority 2005, dated 2012).

Each structure is given as a SMILES string. Several values for one entry are separate records, joined by “and”; a condition that tells them apart may be missing. Identical values can stand only once.

Data set [1] relates to three human clear cell renal cell carcinoma (RCC) cell lines (UMRC3, UMRC6, 786-O). Put plainly: RCC cell proliferation assay, three cell lines together. Format: cell-based. As to conditions: 10 μM. How it is done:
(§1) FIG. 23 provides the results of cell proliferation assays using three different RCC cell lines: (a) UMRC3, (b) UMRC6 and (c) 786-O, and compounds I-5; RCC cells were resuspended in media and treated with UV radiation (350 nm) for 10 minutes with and without indicated compounds; control cells were exposed to the indicated compound 1-5 at final concentration of 10 μM; cell numbers determined after 72 hours as described in the SI Section;
(§2) The ability of compounds 1-5 to inhibit cell proliferation in three human clear cell renal cell carcinoma (RCC) cell lines was tested in the dark and under photoactivation (FIG. 23). No difference was detected in the control experiments between cells not exposed to UV versus those that were exposed to UV at 350 nm for 10 minutes in any of the three RCC cell lines tested (FIG. 23 A, B & C; first two columns).

For data set [2], the system named is calf thymus (CT) DNA. Nature of the data set: UV-Vis absorbance titration with DNA. In kind it is binding. To be noted: 20 mM phosphate buffer. How it is done:
General information. ^1H, ^13C and ^19F NMR were collected on a Varian Gemini 300 MHz NMR spectrometer and a Bruker 300 MHz NMR spectrometer. Mass spectrometry data was collected on a Jeol JMS-600H. UV spectra were recorded on a Shimadzu UV-2100. Fluorescence spectra were obtained with SPEX FluoMax spectrofluorimeter using right-angle geometry. pH was adjusted with AB 15 plus pH meter (Accument) after standardization at 25° C. All buffers were prepared and pH-adjusted at room temperature (25° C.). Plasmid DNA Photocleavage. pBR322 plasmid DNA (4,361 b/p; from BioLabs Inc., 1 μg/μL solution in 10 mM Tris-HCl (pH 8.0), and 1 mM EDTA buffer) was diluted to a concentration of 0.01 μg/μL. The solution containing cleavage agent, DNA (30 μM/bp) in 20 mM sodium phosphate buffer was incubated for 1 hour at 30° C. Samples were placed on ice at a distance of 20 cm from 200 W Hg—Xe lamp (Spectra-Physics, Laser & Photonics Oriel Instruments with long pass filter with 324 nm cut-off wavelength). Electrophoretic Analysis. The gel electrophoresis was carried out in 1×TBE buffer at 80 V using Miligel FisherBiotech Horizontal Electrophoresis System. All gels were run on 1% agarose slab gels. Before loading, the DNA samples were mixed with 0.33 volume of tracking dye containing bromophenol blue (0.25%) and glycerol (30%) in water. After staining in ethidium bromide solution (2 μg/ml) for 1 hour, the gel was washed with water and pictures were taken with Polaroid 3000ISO type 667 film. The relative quantities of the supercoiled, nicked, and linear DNA were calculated by integrating the “area” of each spot by the image analyzer software Total/Lab (Nonlinear Dynamics Ltd., UK). […] Absorbance and fluorescence titration with DNA. The concentrations of calf thymus DNA stock solution was determined spectophotometrically using the following molar absorptovity values: 1.32×10^4 M^−1 cm^−1 (per base pair) at 260 nm. […]

Data set [3] relates to LNCap human prostate adenocarcinoma cells. Nature of the data set: LNCap cell proliferation assay. Format: cell-based.
In a further data set the test system is UMRC3 cells. Nature of the data set: RCC cell proliferation assay, UMRC3. In kind it is cell-based. As to conditions: Homo sapiens, UMRC3, UV 350 nm 10 minutes, 72 hours. As for the experimental part: as §1, §2
The test system of a further data set is CT DNA. Put plainly: Ethidium bromide displacement assay. As to conditions: 10 μM ethidium bromide, 10 μM CT DNA. In kind it is binding, calf. How it is done: (§3) General information. ^1H, ^13C and ^19F NMR were collected on a Varian Gemini 300 MHz NMR spectrometer and a Bruker 300 MHz NMR spectrometer. Mass spectrometry data was collected on a Jeol JMS-600H. UV spectra were recorded on a Shimadzu UV-2100. Fluorescence spectra were obtained with SPEX FluoMax spectrofluorimeter using right-angle geometry. pH was adjusted with AB 15 plus pH meter (Accument) after standardization at 25° C. All buffers were prepared and pH-adjusted at room temperature (25° C.). Plasmid DNA Photocleavage. pBR322 plasmid DNA (4,361 b/p; from BioLabs Inc., 1 μg/μL solution in 10 mM Tris-HCl (pH 8.0), and 1 mM EDTA buffer) was diluted to a concentration of 0.01 μg/μL. The solution containing cleavage agent, DNA (30 μM/bp) in 20 mM sodium phosphate buffer was incubated for 1 hour at 30° C. […] The relative quantities of the supercoiled, nicked, and linear DNA were calculated by integrating the “area” of each spot by the image analyzer software Total/Lab (Nonlinear Dynamics Ltd., UK). […] Absorbance and fluorescence titration with DNA. The concentrations of calf thymus DNA stock solution was determined spectophotometrically using the following molar absorptovity values: 1.32×10^4 M^−1 cm^−1 (per base pair) at 260 nm. […]

The nature of data set [4]: Solubility / aggregation in water. As to conditions: higher pH values (~8). Format: physicochemical. From the text:
The decrease in solubility leads to the apparent aggregation and distortion of potentiometric curves at the higher pH. This distortion prevents accurate curve fitting (see FIG. 25). Thus, we had to resort to alternative spectral methods. Fortunately, there is a selection of convenient procedures which provide complementary information which can be used for cross-checking the accuracy of the alternative approaches.

A short description of data set [5]: Fluorometric (emission) determination of pKa. In kind it is physicochemical. How it is done: General information. ^1H, ^13C and ^19F NMR were collected on a Varian Gemini 300 MHz NMR spectrometer and a Bruker 300 MHz NMR spectrometer. Mass spectrometry data was collected on a Jeol JMS-600H. UV spectra were recorded on a Shimadzu UV-2100. Fluorescence spectra were obtained with SPEX FluoMax spectrofluorimeter using right-angle geometry. pH was adjusted with AB 15 plus pH meter (Accument) after standardization at 25° C. All buffers were prepared and pH-adjusted at room temperature (25° C.). Plasmid DNA Photocleavage. pBR322 plasmid DNA (4,361 b/p; from BioLabs Inc., 1 μg/μL solution in 10 mM Tris-HCl (pH 8.0), and 1 mM EDTA buffer) was diluted to a concentration of 0.01 μg/μL. The solution containing cleavage agent, DNA (30 μM/bp) in 20 mM sodium phosphate buffer was incubated for 1 hour at 30° C. Samples were placed on ice at a distance of 20 cm from 200 W Hg—Xe lamp (Spectra-Physics, Laser & Photonics Oriel Instruments with long pass filter with 324 nm cut-off wavelength). Electrophoretic Analysis. The gel electrophoresis was carried out in 1×TBE buffer at 80 V using Miligel FisherBiotech Horizontal Electrophoresis System. All gels were run on 1% agarose slab gels. Before loading, the DNA samples were mixed with 0.33 volume of tracking dye containing bromophenol blue (0.25%) and glycerol (30%) in water. After staining in ethidium bromide solution (2 μg/ml) for 1 hour, the gel was washed with water and pictures were taken with Polaroid 3000ISO type 667 film. The relative quantities of the supercoiled, nicked, and linear DNA were calculated by integrating the “area” of each spot by the image analyzer software Total/Lab (Nonlinear Dynamics Ltd., UK). The amount of supercoiled DNA was multiplied by factor of 1.4 to account for reduced ethidium bromide intercalation into supercoiled DNA. pH titration by ^1H-NMR. pH* of compound 8 (3 mM) solution in D2O containing 0.05 wt % 3-(trimethylsilyl)propionic-2,2,3,3-d4 acid, sodium salt (TSP-d4) was adjusted with 10 wt % DCI and NaOD in D2O at 25° C. under argon purged condition. Spectrometric determinations of pKa. pH of 10 μM of compound solution in H2O was adjusted with 10, 100 mM HCl (aq) and NaOH (aq) solution under argon purged condition. Excitation wavelength was 330 nm and polymethacrylate fluorimeter cuvettes were used. Absorbance and fluorescence titration with DNA. The concentrations of calf thymus DNA stock solution was determined spectophotometrically using the following molar absorptovity values: 1.32×10^4 M^−1 cm^−1 (per base pair) at 260 nm. All experiments were done in 20 mM sodium phosphate buffer at 25° C. and polymethacrylate fluorimeter cuvettes were used. The same amount of DNA was added to both sample and reference cuvettes during UV/Vis titration. Determination of excited state lifetimes. The concentration of compound solution was 10 μM in 20 mM sodium phosphate buffer. The photoluminescence lifetime measurements were conducted by exciting the samples with the output of a Nd:VO—4 (Spectra-Physics Vanguard, 2 W, 532 nm, 76 MHz, 10 ps) pumped R6G dye laser (Coherent 702-1). The output of the dye laser (600 nm, Rhodamine 6G) was cavity dumped at 1.9 MHz and frequency doubled using a BBO crystal to excite the fluorophore (the excitation wavelength used was 290 nm). Samples were excited with <1 mW power and the emission was collected at right angles onto a Chromex S3 500 is 0.5 m imaging monochromator with a 50 g/mm grating and 0.5 nm resolution. […]

Data set [6] has as its system calf thymus (CT) DNA. Put plainly: Fluorescence (emission) titration with DNA. As to conditions: 10 μM, 20 mM phosphate buffer. Format: binding. How it is done:
as §3

With `Cl.Cl.NCCCC[C@H](N)C(=O)Nc1ccc(C#Cc2c(F)c(F)nc(F)c2F)cc1` [Compound 4, (S)-2,6-Diamino-hexanoic acid [4-(2,3,5,6-tetrafluoro-pyridin-4-ylethynyl)-phenyl]-amide dihydrochloride], the “cytotoxicity in the dark” value in data set [1] is given as “considerably less cytotoxic in the dark”. Also, the “hypochromicity on titration with DNA” value is 20% in the data set on calf thymus (CT) DNA [2] (pH 5.5, 10 μM); 14% in the data set on calf thymus (CT) DNA [2] (pH 7, 10 μM); 12% in the data set with calf thymus (CT) DNA [2] (pH 8, 10 μM). In addition, in data set [3] (10 nM, UV 10 minutes, counted after 48 h), the LNCap cells destroyed entry is “more than 90%”. For the same compound, the toxicity without light entry in data set [3] (no UV) is reported as “almost no toxicity”. The mortality at 10 µM with UMRC3 cells was 94%. Also, the “displacement of intercalated ethidium bromide from its complex with DNA” value in the data set with CT DNA is recorded as “does not lead to the displacement”. Moreover, the aggregation and precipitation result in data set [4] was “does not aggregate and precipitate”. The “α-pKa lower than the pKa for alanine conjugate 6” value in data set [5] (difference to compound 6) is recorded as ~0.5 units. Besides, the “decrease in the basicity of the α-amino group relative to phenyl conjugate 8” value in data set [5] (difference to compound 8) is reported as 0.5-0.6 pKa units. Further, the pKa1 in data set [5] (emission, α-amino group (4, 6), ε-amino group (7), dihydrochloride) was 7.0 and 6.98. In addition, the “change in fluorescence upon DNA titration” value in the data set on calf thymus (CT) DNA [6] is “increase in fluorescence”.

For orientation: mortality means the percentage killed.
